Source: ChEMBL document CHEMBL1156253 (Eur J Med Chem, 2010)

Target: T1, Peroxisome proliferator-activated receptor gamma (Homo sapiens, UniProt P37231)
T1 sequence (P37231 whole entry): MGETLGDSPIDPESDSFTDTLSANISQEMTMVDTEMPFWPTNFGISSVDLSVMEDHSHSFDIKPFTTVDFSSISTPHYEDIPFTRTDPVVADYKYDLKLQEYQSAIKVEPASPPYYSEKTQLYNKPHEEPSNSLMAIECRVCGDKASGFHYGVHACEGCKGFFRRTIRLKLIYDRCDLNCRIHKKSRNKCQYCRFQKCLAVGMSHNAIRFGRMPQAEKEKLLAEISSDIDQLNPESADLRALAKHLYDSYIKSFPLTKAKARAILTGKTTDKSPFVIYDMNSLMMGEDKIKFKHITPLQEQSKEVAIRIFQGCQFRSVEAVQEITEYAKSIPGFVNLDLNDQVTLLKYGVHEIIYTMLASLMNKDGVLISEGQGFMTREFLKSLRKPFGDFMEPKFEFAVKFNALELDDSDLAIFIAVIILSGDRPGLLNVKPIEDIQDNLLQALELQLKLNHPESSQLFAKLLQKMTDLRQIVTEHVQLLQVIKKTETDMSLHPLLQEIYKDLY
Test: Agonist activity at N-terminal His-tagged human PPARgamma ligand binding domain by fluorescence polarization assay

Row | Structure (SMILES) | IC50 [µM]
1 | O=C(O)CCN1C(=O)/C(=C\c2ccc(Cl)cc2Cl)SC1=S | 0.876
2 | Cc1ccc(COc2ccccc2/C=C2/SC(=S)N(CCC(=O)O)C2=O)cc1 | 1.32
